The values that follow are results of earlier work, collected in patent US12029733B2, “Treatment of sepsis and related inflammatory conditions by local neuromodulation of the autonomic nervous system” (Tulavi Therapeutics, Inc., priority 2016, dated 2024).

Bounds are passed on as bounds.

For data set [1], the target named is FFA1 (Homo sapiens, UniProt O14842). Particulars: marked *: FFA1 ERK activation (Smith et al. 2009) / aequorin reporter Ca2+ signaling (Kotarsky et al. 2003).
For data set [2], the target named is T1, GPR120 (Homo sapiens, UniProt Q5NUL3).
T1 sequence (Q5NUL3 1-361): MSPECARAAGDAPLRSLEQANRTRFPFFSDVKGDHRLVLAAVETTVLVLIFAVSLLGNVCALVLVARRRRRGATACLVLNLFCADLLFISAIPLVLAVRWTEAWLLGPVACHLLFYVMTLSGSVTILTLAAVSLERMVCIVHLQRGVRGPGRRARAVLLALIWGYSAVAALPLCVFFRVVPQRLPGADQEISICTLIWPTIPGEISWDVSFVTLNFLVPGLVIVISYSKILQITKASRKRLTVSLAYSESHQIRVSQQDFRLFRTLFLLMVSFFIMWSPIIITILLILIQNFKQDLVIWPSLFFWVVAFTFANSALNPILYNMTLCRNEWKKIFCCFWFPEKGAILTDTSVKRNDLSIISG
As to conditions: fluorescent indicator measurement of Ca2+ mobilization.

The target in data set [3] is T2, KCC2 (Homo sapiens, UniProt Q9H2X9).
T2 sequence (Q9H2X9 1-1139): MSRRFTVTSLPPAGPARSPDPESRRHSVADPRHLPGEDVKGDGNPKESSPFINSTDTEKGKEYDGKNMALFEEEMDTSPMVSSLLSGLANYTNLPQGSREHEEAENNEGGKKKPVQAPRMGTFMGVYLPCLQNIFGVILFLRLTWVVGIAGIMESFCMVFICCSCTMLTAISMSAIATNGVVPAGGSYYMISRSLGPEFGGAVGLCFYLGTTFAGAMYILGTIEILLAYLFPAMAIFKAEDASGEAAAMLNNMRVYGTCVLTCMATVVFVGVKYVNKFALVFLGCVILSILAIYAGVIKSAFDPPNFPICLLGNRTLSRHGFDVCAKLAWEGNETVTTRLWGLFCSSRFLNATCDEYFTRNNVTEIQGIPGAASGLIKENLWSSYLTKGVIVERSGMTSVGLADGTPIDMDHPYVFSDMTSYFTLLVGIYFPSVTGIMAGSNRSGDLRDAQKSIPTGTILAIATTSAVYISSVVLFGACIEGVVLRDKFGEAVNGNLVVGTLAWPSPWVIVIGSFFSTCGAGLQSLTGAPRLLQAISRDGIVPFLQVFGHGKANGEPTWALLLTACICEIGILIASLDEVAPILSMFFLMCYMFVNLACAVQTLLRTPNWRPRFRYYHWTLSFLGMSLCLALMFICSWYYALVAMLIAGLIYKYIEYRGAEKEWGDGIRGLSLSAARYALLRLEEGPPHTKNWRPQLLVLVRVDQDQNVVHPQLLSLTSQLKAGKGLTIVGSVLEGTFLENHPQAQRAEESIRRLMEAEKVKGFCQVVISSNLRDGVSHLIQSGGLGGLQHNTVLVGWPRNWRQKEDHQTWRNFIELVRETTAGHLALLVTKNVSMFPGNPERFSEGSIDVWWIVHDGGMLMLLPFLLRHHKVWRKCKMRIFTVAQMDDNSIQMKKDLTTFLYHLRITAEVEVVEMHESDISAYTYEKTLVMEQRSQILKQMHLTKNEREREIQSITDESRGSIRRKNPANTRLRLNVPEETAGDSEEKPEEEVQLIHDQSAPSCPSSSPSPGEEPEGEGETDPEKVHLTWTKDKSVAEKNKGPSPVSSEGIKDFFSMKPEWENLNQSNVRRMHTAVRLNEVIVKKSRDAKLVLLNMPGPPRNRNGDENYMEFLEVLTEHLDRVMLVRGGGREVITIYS

The conditions of data set [4]: in vivo.

FFA1, sequence (O14842 whole entry): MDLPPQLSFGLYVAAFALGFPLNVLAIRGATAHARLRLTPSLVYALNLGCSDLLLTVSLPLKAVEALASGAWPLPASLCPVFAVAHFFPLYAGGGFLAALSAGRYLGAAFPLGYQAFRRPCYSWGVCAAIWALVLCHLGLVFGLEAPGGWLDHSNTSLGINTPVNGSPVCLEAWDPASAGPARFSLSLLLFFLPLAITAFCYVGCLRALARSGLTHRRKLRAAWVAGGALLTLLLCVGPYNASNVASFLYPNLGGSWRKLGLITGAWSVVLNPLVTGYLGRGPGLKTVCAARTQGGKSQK

In the case of `CC(C)(CCCCCCCCCCC(C)(C)CC(=O)O)CC(=O)O` [MEDICA16], the “FFA1 pEC50” value in data set [1] is listed as 5.5-5.9*. Further, the “GPR120 pEC50” value in data set [2] was <5.0.

Turning to `CCCCCCCC/C=C\CCCCCCCC(=O)O` [Oleic acid (C18:l), Oleic acid], the “GPR120 pEC50” value in data set [2] is on record as 4.5.

Consider `CCCCCCCCCCCCCCCC(=O)O` [Palmitic Acid (C16:0), Palmitic Acid], for which the “GPR120 pEC50” value in data set [2] was 4.3.

`CN(CCOc1ccc(CC2SC(=O)NC2=O)cc1)c1ccccn1` (stereo not shown) [Rosiglitazone]: in data set [1], the “FFA1 pEC50” value is recorded as 5.0-5.6*.

In the case of `Cc1csc(NC(=O)CSc2ccc(-c3ccccc3)nn2)n1` [VU0240551], the “selectivity KCC2 over NKCC1” value in data set [3] is on record as “selective for KCC2 over NKCC1”.

In the case of `N=C(N)NC(=O)c1cnn(-c2cccc3ncccc23)c1C1CC1` [Zoniporide], in data set [4], the neurotoxic effects result is “causes peripheral sensory axonopathy”.
